Among the test systems are DMS 114 small cell lung; SNB-78 CNS; M19-MEL melanoma; HOP-18 NSCLC; BT-549 breast; PC-3 prostate; MDA-MB-231 breast; T-47D breast; ACHN renal; DU-145 prostate; MDA-MB-435; HS 578T breast.
Assay in all cases: NCI tumour cell line growth inhibition, 48 h

“And” between values parts separate entries of the source, which are not always exact repeats. Identical values can stand only once.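 Following 48 hours of exposure in 96-well plates, responses at five concentrations were used to interpolate endpoints linearly. GI50 = concentration required for 50% inhibition of growth. TGI is the concentration that stops growth completely.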

Turning to `CC(C)=CCC/C(C)=C/CCC1(C)C=Cc2c(c3ccccc3oc2=O)O1` (configuration not stated), the TGI in the test with DMS 114 small cell lung is 29.8 µM; with SNB-78 CNS, above 92.8 µM; in the test with M19-MEL melanoma it was 31.4 µM; in the test with HOP-18 NSCLC, 32.6 µM.

Regarding `OC1COC(OCc2ccccc2)C(O)C1O` (configuration not stated), the TGI with BT-549 breast, with PC-3 prostate, in the test on MDA-MB-231 breast, in the test with T-47D breast, with ACHN renal and in the test with DU-145 prostate was above 100 µM throughout. For the same molecule, the TGI with MDA-MB-435 and in the test on HS 578T breast was above 100 µM in each case.

Take `C/C(=N\NC(=S)Nc1ccc([N+](=O)[O-])cc1)c1nc2ncccc2[nH]1`: the TGI with BT-549 breast was 2.35 µM; in the test on PC-3 prostate, 16.9 µM; in the test with MDA-MB-231 breast, above 100 µM; with T-47D breast it was 22.9 µM; with DU-145 prostate, above 100 µM; with MDA-MB-435, 4.42 µM. Also, the TGI in the test on HS 578T breast was 6.51 µM.

With `O=C(O)CCCc1ccccc1`, the GI50 in the test on BT-549 breast was 242 µM and > 1000 µM; in the test on PC-3 prostate it was 364 µM and > 1000 µM; in the test with MDA-MB-231 breast it was 338 µM and > 1000 µM; with T-47D breast, 203 µM and > 1000 µM; in the test with ACHN renal, 436 µM and > 1000 µM; in the test with DU-145 prostate, above 1000 µM. For the same molecule, the GI50 with MDA-MB-435 was 292 µM and > 1000 µM; in the test on HS 578T breast it was above 1000 µM. In addition, the TGI in the test on BT-549 breast, with PC-3 prostate, in the test with MDA-MB-231 breast, in the test on T-47D breast, in the test on ACHN renal and in the test with DU-145 prostate was above 1000 µM throughout. The TGI in the test with MDA-MB-435 was above 1000 µM; in the test with HS 578T breast, 625 µM and > 1000 µM.

For `Cc1cn(C2CC(O)C(Cn3nncc3Cn3ncc(=O)[nH]c3=O)O2)c(=O)[nH]c1=O` (configuration not stated), the TGI in the test with BT-549 breast, in the test with PC-3 prostate, in the test on MDA-MB-231 breast, in the test on T-47D breast, in the test with ACHN renal and in the test on DU-145 prostate was above 100 µM each time. In addition, the TGI in the test with MDA-MB-435 and in the test with HS 578T breast was above 100 µM throughout.

On to `C=CCNC(=O)CN(CC(=O)OC)C1CCCCC1N(CC(=O)OC)CC(=O)OC` (configuration not stated), for which the TGI in the test with BT-549 breast, in the test with PC-3 prostate, in the test on MDA-MB-231 breast, with T-47D breast, in the test on ACHN renal and in the test with DU-145 prostate was above 100 µM in each case. Also, the TGI in the test on MDA-MB-435 and in the test with HS 578T breast was above 100 µM throughout.

For the molecule `O=C(O)C12CC3CC(C1)C2C=C3P(=O)(O)O` (configuration not stated), the TGI with DMS 114 small cell lung, in the test with ACHN renal and in the test with M19-MEL melanoma was above 100 µM each time.

Consider `COCCOCOC(C)(C)[C@H](CCO)O[Si](c1ccccc1)(c1ccccc1)C(C)(C)C`, for which the TGI in the test on SNB-78 CNS is 35.1 µM; with ACHN renal, 18.9 µM; in the test on M19-MEL melanoma it was 26.9 µM; in the test on HOP-18 NSCLC, 31.9 µM.

With `O=C1c2ccccc2C(=O)c2c1cc1c(c2[N+](=O)[O-])OCO1`, the GI50 in the test with PC-3 prostate was 1.29 µM; in the test with MDA-MB-231 breast, 1.45 µM; in the test on T-47D breast, 0.551 µM; in the test on ACHN renal, 0.248 µM; in the test on DU-145 prostate, 2.58 µM; in the test on MDA-MB-435, 2.91 µM. Moreover, the GI50 in the test with HS 578T breast was 2.28 µM. Further, the TGI in the test with PC-3 prostate came out at 4.66 µM; with MDA-MB-231 breast, 6.79 µM; with T-47D breast it was 6.33 µM; in the test with ACHN renal, 1.3 µM; with DU-145 prostate, 8.43 µM; in the test on MDA-MB-435, 9.58 µM. This molecule displayed a TGI in the test with HS 578T breast of 6.02 µM.

For `CC(C)=CC(=O)OC1C2C(C)=CC(O)C(O)C2(C)C2C3(O)OCC24C(CC(=O)OC14)C(C)C3O` (configuration not stated), the TGI is 0.0567 µM with DMS 114 small cell lung, 1.11 µM in the test with SNB-78 CNS, 0.127 µM in the test on M19-MEL melanoma and 7.58 µM in the test with HOP-18 NSCLC.

Take `COc1cc(/C=C/C2=C(C#N)C(=O)OC2(C)C)ccc1O`: the TGI with SNB-78 CNS, with ACHN renal, in the test on M19-MEL melanoma and in the test on HOP-18 NSCLC was above 100 µM throughout.

Regarding `CCCCCCCCCCCCC(O)C(=O)O` (configuration not stated), the TGI in the test with BT-549 breast, in the test with PC-3 prostate, with MDA-MB-231 breast, in the test with T-47D breast, in the test on ACHN renal and in the test on DU-145 prostate was above 100 µM in each case. Moreover, the TGI in the test on MDA-MB-435 and in the test on HS 578T breast was above 100 µM throughout.

As to `COc1cc(C(=O)C2CC3(CCC2(O)c2cc(OC)c(OC)c(OC)c2)CC(=O)Nc2ccccc2C3=O)cc(OC)c1OC` (configuration not stated), the TGI in the test on BT-549 breast, with PC-3 prostate, with MDA-MB-231 breast, in the test with T-47D breast, with DU-145 prostate and with MDA-MB-435 was above 100 µM each time. In the test on HS 578T breast, this molecule displayed a TGI above 100 µM.

For the molecule `c1ccc2cc3c(cc2c1)OP1(Oc2cccc4cccnc24)(O3)Oc2cc3ccccc3cc2O1`, the TGI was above 23 µM in the test with DMS 114 small cell lung, above 100 µM with SNB-78 CNS, 38.1 µM in the test with M19-MEL melanoma and 56.3 µM with HOP-18 NSCLC.

As to `Nc1n[nH]c(CCCCCCCc2nc(N)n[nH]2)n1`, the TGI in the test on DMS 114 small cell lung, with SNB-78 CNS, in the test with ACHN renal and in the test with M19-MEL melanoma was above 100 µM in each case.

Take `Cc1c(C2=NN=C(N=Nc3c(O)cccc3O)/C2=C/c2ccccc2)c(=O)n(-c2ccccc2)n1C`: the TGI in the test on DMS 114 small cell lung, in the test with SNB-78 CNS, in the test with M19-MEL melanoma and in the test on HOP-18 NSCLC was above 100 µM throughout.

The record behind these values is PubChem BioAssay (NCI).
